Values after ≈ are worked out from the molar mass of the structure shown.
Columns and labels:
Type in all cases: functional
Staphylococcus aureus [1] = assay: Antibacterial activity against erythromycin-susceptible Staphylococcus aureus ATCC 25923 by standard broth microdilution method
Streptococcus pneumoniae [2] = assay: Antibacterial activity against erythromycin-resistant Streptococcus pneumoniae B1 expressing ermB gene by standard broth microdilution method
Staphylococcus aureus [3] = assay: Antibacterial activity against methicillin-resistant Staphylococcus aureus ATCC 43300 by standard broth microdilution method
Streptococcus pyogenes [4] = assay: Antibacterial activity against erythromycin resistant Streptococcus pyogenes R1 by standard broth microdilution method
Streptococcus pneumoniae [5] = assay: Antibacterial activity against erythromycin-resistant Streptococcus pneumoniae AB11 expressing ermB and me/A genes by standard broth microdilution method
Bacillus subtilis = assay: Antibacterial activity against penicillin-susceptible Bacillus subtilis ATCC 9372 by standard broth microdilution method
Escherichia coli = assay: Antibacterial activity against penicillin-susceptible Escherichia coli ATCC 25922 by standard broth microdilution method
Pseudomonas aeruginosa = assay: Antibacterial activity against penicillin-susceptible Pseudomonas aeruginosa ATCC 27853 by standard broth microdilution method
Streptococcus pyogenes [6] = assay: Potency index, ratio of MIC of AZM to MIC of compound for antibacterial activity against erythromycin resistant Streptococcus pyogenes R1
Streptococcus pyogenes [7] = assay: Potency index, ratio of MIC of CAM to MIC of compound for antibacterial activity against erythromycin resistant Streptococcus pyogenes R1

SMILES	MIC (Staphylococcus aureus [1]) [µg/mL]	MIC (Streptococcus pneumoniae [2]) [µg/mL]	MIC (Staphylococcus aureus [3]) [µg/mL]	MIC (Streptococcus pyogenes [4]) [µg/mL]	MIC (Streptococcus pneumoniae [5]) [µg/mL]	MIC (Bacillus subtilis) [µg/mL]	MIC (Escherichia coli) [µg/mL]	MIC (Pseudomonas aeruginosa) [µg/mL]	Ratio (Streptococcus pyogenes [6])	Ratio (Streptococcus pyogenes [7])
CC[C@H]1OC(=O)[C@H](C)C(=O)[C@H](C)[C@@H](O[C@H]2O[C@@H](C)C[C@@H](N(C)C)[C@@H]2O)[C@](C)(OC)C[C@@H](C)C(=O)[C@H](C)[C@@H](OC(=O)NCCn2cc(-c3ccc(Cl)cc3)nn2)[C@]1(C)O	8 (≈ 9.56 µM)	128 (≈ 153 µM)	256 (≈ 306 µM)	64 (≈ 76.5 µM)	128 (≈ 153 µM)	4 (≈ 4.78 µM)	> 128	128 (≈ 153 µM)		
CC[C@H]1OC(=O)[C@H](C)C(=O)[C@H](C)[C@@H](O[C@H]2O[C@@H](C)C[C@@H](N(C)C)[C@@H]2O)[C@](C)(OC)C[C@@H](C)C(=O)[C@H](C)[C@@H](OC(=O)NCCn2cc(-c3ccc(C(C)(C)C)cc3)nn2)[C@]1(C)O	32 (≈ 37.3 µM)	128 (≈ 149 µM)	256 (≈ 298 µM)	64 (≈ 74.6 µM)	128 (≈ 149 µM)	8 (≈ 9.32 µM)	> 128	128 (≈ 149 µM)		
CC[C@H]1OC(=O)[C@H](C)C(=O)[C@H](C)[C@@H](O[C@H]2O[C@@H](C)C[C@@H](N(C)C)[C@@H]2O)[C@](C)(OC)C[C@@H](C)C(=O)[C@H](C)[C@@H](OC(=O)NCCn2cc(-c3cccc([N+](=O)[O-])c3)nn2)[C@]1(C)O	8 (≈ 9.45 µM)	256 (≈ 302 µM)	> 256	64 (≈ 75.6 µM)	128 (≈ 151 µM)	4 (≈ 4.72 µM)	> 128	128 (≈ 151 µM)		
CC[C@H]1OC(=O)[C@H](C)C(=O)[C@H](C)[C@@H](O[C@H]2O[C@@H](C)C[C@@H](N(C)C)[C@@H]2O)[C@](C)(OC)C[C@@H](C)C(=O)[C@H](C)[C@@H](OC(=O)NCCCn2cc(-c3ccc(C(C)(C)C)cc3)nn2)[C@]1(C)O	16 (≈ 18.3 µM)	64 (≈ 73.4 µM)	128 (≈ 147 µM)	32 (≈ 36.7 µM)	64 (≈ 73.4 µM)	16 (≈ 18.3 µM)	> 128	128 (≈ 147 µM)	8 - 16	8 - 16
CC[C@H]1OC(=O)[C@H](C)C(=O)[C@H](C)[C@@H](O[C@H]2O[C@@H](C)C[C@@H](N(C)C)[C@@H]2O)[C@](C)(OC)C[C@@H](C)C(=O)[C@H](C)[C@@H](OC(=O)NCCn2cc(-c3cccc(Cl)c3)nn2)[C@]1(C)O	8 (≈ 9.56 µM)	128 (≈ 153 µM)	256 (≈ 306 µM)	64 (≈ 76.5 µM)	128 (≈ 153 µM)	4 (≈ 4.78 µM)	> 128	128 (≈ 153 µM)		
CCCc1ccc(-c2cn(CCNC(=O)O[C@@H]3[C@@H](C)C(=O)[C@H](C)C[C@@](C)(OC)[C@H](O[C@H]4O[C@@H](C)C[C@@H](N(C)C)[C@@H]4O)[C@@H](C)C(=O)[C@@H](C)C(=O)O[C@H](CC)[C@@]3(C)O)nn2)cc1	32 (≈ 37.9 µM)	256 (≈ 303 µM)	256 (≈ 303 µM)	64 (≈ 75.8 µM)	128 (≈ 152 µM)	8 (≈ 9.48 µM)	> 128	128 (≈ 152 µM)		
CC[C@H]1OC(=O)[C@H](C)C(=O)[C@H](C)[C@@H](O[C@H]2O[C@@H](C)C[C@@H](N(C)C)[C@@H]2O)[C@](C)(OC)C[C@@H](C)C(=O)[C@H](C)[C@@H](OC(=O)NCCn2cc(-c3ccc(OC)cc3)nn2)[C@]1(C)O	16 (≈ 19.2 µM)	> 256	> 256	256 (≈ 308 µM)	256 (≈ 308 µM)	4 (≈ 4.81 µM)	> 128	128 (≈ 154 µM)		
CC[C@H]1OC(=O)[C@H](C)C(=O)[C@H](C)[C@@H](O[C@H]2O[C@@H](C)C[C@@H](N(C)C)[C@@H]2O)[C@](C)(OC)C[C@@H](C)C(=O)[C@H](C)[C@@H](OC(=O)NCCn2cc(-c3cccc(N)c3)nn2)[C@]1(C)O	32 (≈ 39.2 µM)	> 256	> 256	256 (≈ 313 µM)	256 (≈ 313 µM)	32 (≈ 39.2 µM)	> 128	128 (≈ 157 µM)		
CCc1ccc(-c2cn(CCNC(=O)O[C@@H]3[C@@H](C)C(=O)[C@H](C)C[C@@](C)(OC)[C@H](O[C@H]4O[C@@H](C)C[C@@H](N(C)C)[C@@H]4O)[C@@H](C)C(=O)[C@@H](C)C(=O)O[C@H](CC)[C@@]3(C)O)nn2)cc1	32 (≈ 38.6 µM)	> 256	> 256	128 (≈ 154 µM)	256 (≈ 308 µM)	4 (≈ 4.82 µM)	> 128	128 (≈ 154 µM)		
CC[C@H]1OC(=O)[C@H](C)C(=O)[C@H](C)[C@@H](O[C@H]2O[C@@H](C)C[C@@H](N(C)C)[C@@H]2O)[C@](C)(OC)C[C@@H](C)C(=O)[C@H](C)[C@@H](OC(=O)NCCCn2cc(-c3ccccc3)nn2)[C@]1(C)O	8 (≈ 9.8 µM)	128 (≈ 157 µM)	256 (≈ 314 µM)	64 (≈ 78.4 µM)	64 (≈ 78.4 µM)	8 (≈ 9.8 µM)	> 128	128 (≈ 157 µM)		
CC[C@H]1OC(=O)[C@H](C)C(=O)[C@H](C)[C@@H](O[C@H]2O[C@@H](C)C[C@@H](N(C)C)[C@@H]2O)[C@](C)(OC)C[C@@H](C)C(=O)[C@H](C)[C@@H](OC(=O)NCCn2cc(-c3cccc(F)c3)nn2)[C@]1(C)O	8 (≈ 9.76 µM)	256 (≈ 312 µM)	256 (≈ 312 µM)	128 (≈ 156 µM)	128 (≈ 156 µM)	4 (≈ 4.88 µM)	> 128	128 (≈ 156 µM)		
CC[C@H]1OC(=O)[C@H](C)[C@@H](O[C@H]2C[C@@](C)(OC)[C@@H](O)[C@H](C)O2)[C@H](C)[C@@H](O[C@@H]2O[C@H](C)C[C@H](N(C)C)[C@H]2O)[C@](C)(O)C[C@@H](C)CN(C)[C@H](C)[C@@H](O)[C@]1(C)O [AZITHROMYCIN]	0.25 (≈ 0.334 µM)	> 256	> 256	256 (≈ 342 µM)	256 (≈ 342 µM)	0.25 (≈ 0.334 µM)	> 128	4 (≈ 5.34 µM)		
CC[C@H]1OC(=O)[C@H](C)C(=O)[C@H](C)[C@@H](O[C@H]2O[C@@H](C)C[C@@H](N(C)C)[C@@H]2O)[C@](C)(OC)C[C@@H](C)C(=O)[C@H](C)[C@@H](OC(=O)NCCn2cc(-c3ccc(F)cc3)nn2)[C@]1(C)O	16 (≈ 19.5 µM)	256 (≈ 312 µM)	> 256	64 (≈ 78.1 µM)	128 (≈ 156 µM)	4 (≈ 4.88 µM)	> 128	128 (≈ 156 µM)		
CC[C@H]1OC(=O)[C@H](C)C(=O)[C@H](C)[C@@H](O[C@H]2O[C@@H](C)C[C@@H](N(C)C)[C@@H]2O)[C@](C)(OC)C[C@@H](C)C(=O)[C@H](C)[C@@H](OC(=O)NCCn2cc(-c3ccccc3OC)nn2)[C@]1(C)O	16 (≈ 19.2 µM)	> 256	> 256	256 (≈ 308 µM)	> 256	4 (≈ 4.81 µM)	> 128	128 (≈ 154 µM)		
CC[C@H]1OC(=O)[C@H](C)C(=O)[C@H](C)[C@@H](O[C@H]2O[C@@H](C)C[C@@H](N(C)C)[C@@H]2O)[C@](C)(OC)C[C@@H](C)C(=O)[C@H](C)[C@@H](OC(=O)NCCn2cc(-c3ccc([N+](=O)[O-])cc3)nn2)[C@]1(C)O	16 (≈ 18.9 µM)	256 (≈ 302 µM)	> 256	64 (≈ 75.6 µM)	256 (≈ 302 µM)	4 (≈ 4.72 µM)	> 128	128 (≈ 151 µM)		
CCOc1ccc(-c2cn(CCNC(=O)O[C@@H]3[C@@H](C)C(=O)[C@H](C)C[C@@](C)(OC)[C@H](O[C@H]4O[C@@H](C)C[C@@H](N(C)C)[C@@H]4O)[C@@H](C)C(=O)[C@@H](C)C(=O)O[C@H](CC)[C@@]3(C)O)nn2)cc1	16 (≈ 18.9 µM)	> 256	> 256	128 (≈ 151 µM)	256 (≈ 303 µM)	16 (≈ 18.9 µM)	> 128	128 (≈ 151 µM)		
CC[C@H]1OC(=O)[C@H](C)C(=O)[C@H](C)[C@@H](O[C@H]2O[C@@H](C)C[C@@H](N(C)C)[C@@H]2O)[C@](C)(OC)C[C@@H](C)C(=O)[C@H](C)[C@@H](OC(=O)NCCn2cc(-c3ccccc3)nn2)[C@]1(C)O	32 (≈ 39.9 µM)	256 (≈ 319 µM)	> 256	256 (≈ 319 µM)	256 (≈ 319 µM)	8 (≈ 9.98 µM)	> 128	128 (≈ 160 µM)		
CC[C@H]1OC(=O)[C@H](C)C(=O)[C@H](C)[C@@H](O[C@H]2O[C@@H](C)C[C@@H](N(C)C)[C@@H]2O)[C@](C)(OC)C[C@@H](C)C(=O)[C@H](C)[C@@H](OC(=O)NCCn2cc(-c3ccc(C)cc3)nn2)[C@]1(C)O	32 (≈ 39.2 µM)	> 256	> 256	256 (≈ 314 µM)	256 (≈ 314 µM)	8 (≈ 9.8 µM)	> 128	128 (≈ 157 µM)		
CC[C@H]1OC(=O)[C@H](C)C(=O)[C@H](C)[C@@H](O[C@H]2O[C@@H](C)C[C@@H](N(C)C)[C@@H]2O)[C@](C)(OC)C[C@@H](C)C(=O)[C@H](C)[C@@H](OC(=O)NCCn2cc(-c3cccc(C)c3)nn2)[C@]1(C)O	32 (≈ 39.2 µM)	> 256	> 256	256 (≈ 314 µM)	256 (≈ 314 µM)	8 (≈ 9.8 µM)	> 128	128 (≈ 157 µM)		
CC[C@H]1OC(=O)[C@H](C)C(=O)[C@H](C)[C@@H](O[C@H]2O[C@@H](C)C[C@@H](N(C)C)[C@@H]2O)[C@](C)(OC)C[C@@H](C)C(=O)[C@H](C)[C@@H](OC(=O)NCCn2cc(-c3cccc(Br)c3)nn2)[C@]1(C)O	16 (≈ 18.2 µM)	256 (≈ 291 µM)	> 256	128 (≈ 145 µM)	128 (≈ 145 µM)	8 (≈ 9.08 µM)	> 128	128 (≈ 145 µM)		
CC[C@H]1OC(=O)[C@H](C)C(=O)[C@H](C)[C@@H](O[C@H]2O[C@@H](C)C[C@@H](N(C)C)[C@@H]2O)[C@](C)(OC)C[C@@H](C)C(=O)[C@H](C)[C@@H](OC(=O)NCCn2cc(-c3ccccc3Cl)nn2)[C@]1(C)O	8 (≈ 9.56 µM)	128 (≈ 153 µM)	256 (≈ 306 µM)	64 (≈ 76.5 µM)	128 (≈ 153 µM)	4 (≈ 4.78 µM)	> 128	128 (≈ 153 µM)		

Reference: ChEMBL document CHEMBL4602639, “A novel series of 11-O-carbamoyl-3-O-descladinosyl clarithromycin derivatives bearing 1,2,3-triazole group: Design, synthesis and antibacterial evaluation” (2020)
